{
  "source": "patent US9512140B2",
  "about": "“(Thieno[2,3-b][1,5]benzoxazepin-4-yl)piperazin-1-yl compounds as dual activity H1 inverse agonists/5-HT2A antagonists” (priority 2011, dated 2016)",
  "key": {"[1]": {"molecular_target": "Serotonin Transporter (Homo sapiens, UniProt P31645)", "sequence (P31645 whole entry)": "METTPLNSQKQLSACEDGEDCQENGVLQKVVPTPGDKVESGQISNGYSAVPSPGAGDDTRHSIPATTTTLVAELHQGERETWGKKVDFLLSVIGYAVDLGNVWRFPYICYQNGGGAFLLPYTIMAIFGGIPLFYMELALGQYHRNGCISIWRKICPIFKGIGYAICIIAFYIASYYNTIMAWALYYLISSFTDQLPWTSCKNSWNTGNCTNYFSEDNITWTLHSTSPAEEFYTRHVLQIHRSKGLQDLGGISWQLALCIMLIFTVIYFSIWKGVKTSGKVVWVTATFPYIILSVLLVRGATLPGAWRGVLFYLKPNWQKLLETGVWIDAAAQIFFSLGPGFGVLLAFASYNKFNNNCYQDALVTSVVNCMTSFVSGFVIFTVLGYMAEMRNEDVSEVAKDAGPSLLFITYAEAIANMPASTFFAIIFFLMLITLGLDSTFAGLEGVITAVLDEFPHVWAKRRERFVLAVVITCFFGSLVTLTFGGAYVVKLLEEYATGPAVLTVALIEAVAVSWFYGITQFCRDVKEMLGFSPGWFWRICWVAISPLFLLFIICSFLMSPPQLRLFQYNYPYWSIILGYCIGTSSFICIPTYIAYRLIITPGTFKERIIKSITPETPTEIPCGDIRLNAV", "experiment": "Serotonin transporter binding", "from_the_text": "(§1) Further, the compounds of the invention may be tested in binding assays and functional activity assays by well known methods for other physiologically important receptors such as, but not limited to, the hERO channel, other serotonin receptors (specifically 5-HT1B, 5-HT1D, receptors, lack of agonist activity at 5-HT2B receptors, 5-HT2C, 5-HT5, 5-HT6, and 5-HT7 receptors), dopaminergic receptors (specifically D1, D2, and D3), GABAA receptors, adrenergic receptors and monoamine transporters."}, "[2]": {"molecular_target": "Dopamine Transporter (Homo sapiens, UniProt Q01959)", "sequence (Q01959 whole entry)": "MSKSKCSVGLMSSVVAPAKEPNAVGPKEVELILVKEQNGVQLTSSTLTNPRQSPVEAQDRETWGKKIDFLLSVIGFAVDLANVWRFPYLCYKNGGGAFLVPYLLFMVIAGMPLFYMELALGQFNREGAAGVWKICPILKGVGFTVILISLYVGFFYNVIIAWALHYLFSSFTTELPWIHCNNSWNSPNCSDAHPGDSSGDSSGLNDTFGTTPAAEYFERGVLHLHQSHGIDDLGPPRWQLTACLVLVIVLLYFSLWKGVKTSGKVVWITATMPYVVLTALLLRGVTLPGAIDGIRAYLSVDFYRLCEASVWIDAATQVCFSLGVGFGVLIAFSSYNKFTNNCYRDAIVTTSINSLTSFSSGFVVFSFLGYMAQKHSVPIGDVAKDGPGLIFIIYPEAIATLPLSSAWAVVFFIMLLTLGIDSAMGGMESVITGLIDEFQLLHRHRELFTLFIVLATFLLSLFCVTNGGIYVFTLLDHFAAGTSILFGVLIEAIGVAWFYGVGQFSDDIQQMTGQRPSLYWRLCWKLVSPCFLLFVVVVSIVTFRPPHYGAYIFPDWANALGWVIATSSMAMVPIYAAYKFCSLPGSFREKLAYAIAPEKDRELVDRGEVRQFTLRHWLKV", "experiment": "Dopamine transporter binding", "from_the_text": "as §1"}, "[3]": {"molecular_target": "Adrenergic alpha1A (Homo sapiens, UniProt P35348)", "sequence (P35348 whole entry)": "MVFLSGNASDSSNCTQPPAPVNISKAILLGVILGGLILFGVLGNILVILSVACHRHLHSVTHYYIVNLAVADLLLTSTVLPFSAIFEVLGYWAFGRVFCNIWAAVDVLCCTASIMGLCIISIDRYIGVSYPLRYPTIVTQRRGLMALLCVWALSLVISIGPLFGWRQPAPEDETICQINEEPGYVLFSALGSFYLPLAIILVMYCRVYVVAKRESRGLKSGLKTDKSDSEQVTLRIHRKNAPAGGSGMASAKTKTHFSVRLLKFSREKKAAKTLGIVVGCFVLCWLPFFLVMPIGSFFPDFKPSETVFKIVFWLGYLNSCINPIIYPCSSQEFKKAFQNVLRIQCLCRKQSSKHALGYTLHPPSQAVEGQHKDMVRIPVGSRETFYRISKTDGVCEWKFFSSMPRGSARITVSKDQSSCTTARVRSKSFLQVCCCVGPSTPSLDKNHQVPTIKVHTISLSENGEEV", "experiment": "Adrenergic alpha1A binding", "from_the_text": "as §1"}, "[4]": {"molecular_target": "Dopamine D3 (Homo sapiens, UniProt P35462)", "sequence (P35462 whole entry)": "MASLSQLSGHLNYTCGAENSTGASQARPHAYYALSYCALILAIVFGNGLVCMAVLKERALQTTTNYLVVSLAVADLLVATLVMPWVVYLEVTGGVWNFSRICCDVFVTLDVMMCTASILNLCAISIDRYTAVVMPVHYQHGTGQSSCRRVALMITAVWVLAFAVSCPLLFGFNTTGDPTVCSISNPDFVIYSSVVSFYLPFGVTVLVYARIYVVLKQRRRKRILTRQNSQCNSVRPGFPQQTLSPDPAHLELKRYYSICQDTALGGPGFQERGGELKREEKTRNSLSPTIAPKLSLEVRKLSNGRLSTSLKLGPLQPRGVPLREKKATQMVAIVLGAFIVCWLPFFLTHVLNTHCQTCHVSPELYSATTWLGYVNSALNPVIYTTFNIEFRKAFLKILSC", "experiment": "Dopamine D3 binding", "from_the_text": "as §1"}, "[5]": {"molecular_target": "5-HT1D (Homo sapiens, UniProt P28221)", "sequence (P28221 whole entry, species assumed)": "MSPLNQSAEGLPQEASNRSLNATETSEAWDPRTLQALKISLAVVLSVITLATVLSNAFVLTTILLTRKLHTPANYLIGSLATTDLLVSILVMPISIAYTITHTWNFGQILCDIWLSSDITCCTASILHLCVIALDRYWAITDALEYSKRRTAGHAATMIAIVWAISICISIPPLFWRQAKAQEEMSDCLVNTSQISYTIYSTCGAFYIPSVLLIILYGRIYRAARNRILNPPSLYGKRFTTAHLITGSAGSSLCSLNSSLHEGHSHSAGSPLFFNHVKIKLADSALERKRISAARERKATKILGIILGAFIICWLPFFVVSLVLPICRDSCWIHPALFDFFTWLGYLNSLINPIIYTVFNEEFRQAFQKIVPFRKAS", "experiment": "5-HT1D binding", "from_the_text": "as §1"}, "[6]": {"molecular_target": "5-HT7 (Homo sapiens, UniProt P34969)", "sequence (P34969 whole entry, species assumed)": "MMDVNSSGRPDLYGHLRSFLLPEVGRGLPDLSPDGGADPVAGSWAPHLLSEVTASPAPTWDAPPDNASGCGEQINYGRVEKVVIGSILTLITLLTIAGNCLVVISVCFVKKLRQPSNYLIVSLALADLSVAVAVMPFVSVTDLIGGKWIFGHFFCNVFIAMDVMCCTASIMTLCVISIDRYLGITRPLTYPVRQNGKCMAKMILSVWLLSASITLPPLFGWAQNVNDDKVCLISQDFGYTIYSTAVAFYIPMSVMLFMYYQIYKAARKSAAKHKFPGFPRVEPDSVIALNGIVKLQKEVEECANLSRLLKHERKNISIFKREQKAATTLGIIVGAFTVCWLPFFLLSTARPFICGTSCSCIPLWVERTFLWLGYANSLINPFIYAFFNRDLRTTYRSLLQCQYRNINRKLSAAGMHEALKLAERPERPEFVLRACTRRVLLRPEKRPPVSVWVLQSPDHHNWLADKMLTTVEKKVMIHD", "experiment": "5-HT7 binding", "from_the_text": "as §1"}, "[7]": {"molecular_target": "Adrenergic alpha2C (Homo sapiens, UniProt P18825)", "sequence (P18825 whole entry)": "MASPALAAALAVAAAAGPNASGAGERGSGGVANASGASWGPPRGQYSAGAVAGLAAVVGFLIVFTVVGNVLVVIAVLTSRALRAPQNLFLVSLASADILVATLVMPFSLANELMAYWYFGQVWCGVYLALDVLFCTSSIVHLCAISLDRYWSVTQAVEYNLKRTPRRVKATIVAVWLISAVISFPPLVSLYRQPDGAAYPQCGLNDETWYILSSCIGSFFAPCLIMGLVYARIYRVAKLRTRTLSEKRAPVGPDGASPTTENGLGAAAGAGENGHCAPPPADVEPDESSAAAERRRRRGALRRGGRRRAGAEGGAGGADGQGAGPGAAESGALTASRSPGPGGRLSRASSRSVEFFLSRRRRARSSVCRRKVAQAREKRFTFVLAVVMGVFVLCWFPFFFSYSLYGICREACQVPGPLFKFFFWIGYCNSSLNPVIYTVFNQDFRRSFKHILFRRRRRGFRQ", "experiment": "Adrenergic alpha2C binding", "from_the_text": "as §1"}, "[8]": {"experiment": "Plasma clearance, dog", "type": "in vivo", "conditions": "male, Beagle, 1 mg/kg, intravenous, 1 mL/kg of 1.0 mg/mL", "description": "Male Beagle dogs (body weight range 10-12 kg) are obtained from Marshall Bioresources, USA. Test compound is administered intravenously in solution (1 mL/kg) in 20% Captisol® in 22.5 mM phosphate buffer, pH 2, at a final drug concentration of 1.0 mg/mL (free base equivalents). Blood samples are obtained from the jugular vein over 24 hr. Samples of plasma are obtained by centrifugation and stored frozen (−20° C.) prior to analysis. Frozen plasma samples are thawed to room temperature for bioanalysis of concentrations of test compound. A related internal standard compound in acetonitrile/methanol (1:1, v/v) is added to all samples of plasma (1:1, v/v). The samples are centrifuged to remove precipitated protein prior to analysis. The supernatants are analysed by injection and rapid gradient elution on a Javelin Betasil C18 column (20×2.1 mm cartridge, Mobile phase A: Water/1 M NH4HCO3, 2000:10 v/v, Mobile Phase B: MeOH/1 M NH4HCO3, 2000:10 v/v). The eluted analytes are detected by LC-MS-MS analysis using a Sciex API 4000 triple quadrupole mass spectrometer. Concentrations of compound are determined from standards prepared and analysed under identical conditions. Clearance is calculated using non-compartmental analysis in Watson 7.4, Thermo Fisher Scientific, Inc."}, "[9]": {"experiment": "Plasma clearance, rat", "type": "in vivo", "conditions": "male, Sprague Dawley, 1 mg/kg, intravenous, 1 mL/kg of 1.0 mg/mL", "description": "Male Sprague Dawley rats (body weight range 250-320 g) with indwelling femoral arterial cannulae are obtained from Charles River, Wilmington, Mass. 01887, USA. Test compound is administered intravenously in solution (1 mL/kg) in 20% Captisol® in 22.5 mM phosphate buffer, pH 2, at a final drug concentration of 1.0 mg/mL (free base equivalents). Blood samples are obtained using the indwelling cannula over 24 hr. Samples of plasma are obtained by centrifugation and stored frozen (−20° C.), or on dry ice, prior to analysis. Frozen plasma samples are thawed to room temperature for bioanalysis of concentrations of test compound. A related internal standard compound in acetonitrile/methanol (1:1, v/v) is added to all samples of plasma (1:1, v/v). The samples are centrifuged to remove precipitated protein prior to analysis. The supernatants are analysed by injection and rapid gradient elution on a Javelin Betasil C18 column (20×2.1 mm cartridge, Mobile phase A: Water/1 M NH4HCO3, 2000:10 v/v, Mobile Phase B: MeOH/1 M NH4HCO3, 2000:10 v/v). The eluted analytes are detected by LC-MS-MS analysis using a Sciex API 4000 triple quadrupole mass spectrometer. Concentrations of compound are determined from standards prepared and analysed under identical conditions. Clearance is calculated using non-compartmental analysis in Watson 7.4, Thermo Fisher Scientific, Inc."}, "[10]": {"molecular_target": "Dopamine D2 (Homo sapiens, UniProt P14416)", "sequence (P14416 whole entry)": "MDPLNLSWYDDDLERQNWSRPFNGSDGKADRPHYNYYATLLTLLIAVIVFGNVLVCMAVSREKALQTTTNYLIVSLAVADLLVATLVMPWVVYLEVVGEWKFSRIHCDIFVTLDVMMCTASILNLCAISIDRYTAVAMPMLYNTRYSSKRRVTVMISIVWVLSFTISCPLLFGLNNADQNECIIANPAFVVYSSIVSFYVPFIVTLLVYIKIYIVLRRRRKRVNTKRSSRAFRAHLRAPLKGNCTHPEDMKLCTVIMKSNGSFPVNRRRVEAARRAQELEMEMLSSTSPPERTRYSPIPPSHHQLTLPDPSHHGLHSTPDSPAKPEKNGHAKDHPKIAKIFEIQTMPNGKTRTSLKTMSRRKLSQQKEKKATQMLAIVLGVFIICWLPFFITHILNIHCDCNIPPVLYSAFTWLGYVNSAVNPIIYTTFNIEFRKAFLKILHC", "experiment": "Dopamine D2 binding", "from_the_text": "as §1"}, "[11]": {"molecular_target": "5-HT5 (Homo sapiens, UniProt P47898)", "sequence (P47898 whole entry, species assumed)": "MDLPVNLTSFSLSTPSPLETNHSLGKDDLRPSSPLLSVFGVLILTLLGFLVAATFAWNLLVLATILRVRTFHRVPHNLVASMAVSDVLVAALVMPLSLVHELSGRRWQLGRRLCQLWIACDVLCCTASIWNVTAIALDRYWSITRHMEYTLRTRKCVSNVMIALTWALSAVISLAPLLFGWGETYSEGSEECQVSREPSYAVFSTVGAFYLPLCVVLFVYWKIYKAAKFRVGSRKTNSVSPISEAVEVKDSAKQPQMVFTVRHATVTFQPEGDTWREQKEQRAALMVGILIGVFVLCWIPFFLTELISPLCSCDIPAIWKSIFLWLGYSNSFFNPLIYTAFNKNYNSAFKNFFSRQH", "experiment": "5-HT5 binding", "from_the_text": "as §1"}},
  "note": "Where a name gives a salt, the structure may show the parent alone.",
  "data": [
    {"smiles": "Cc1ccc2c(c1)Oc1sc(C)cc1C(N1CCN(CC(C)(C)C(=O)O)CC1)=N2", "note": "[Example 2, 3-[4-(2,8-Dimethylthieno[2,3-b][1,5]benzoxazepin-4-yl)piperazin-1-yl]-2,2-dimethyl-propanoic acid dihydrochloride]", "values": [
      {"measurement": "Ki", "setting": "[1]", "value": "> 0.651", "unit": "µM"},
      {"measurement": "Ki", "setting": "[2]", "value": "> 0.877", "unit": "µM"},
      {"measurement": "Ki", "setting": "[3]", "value": "> 10.5", "unit": "µM"},
      {"measurement": "Ki", "setting": "[4]", "value": "> 5.66", "unit": "µM"},
      {"measurement": "Ki", "setting": "[5]", "value": "> 3.98", "unit": "µM"},
      {"measurement": "Ki", "setting": "[6]", "value": "> 2.06", "unit": "µM"},
      {"measurement": "Ki", "setting": "[7]", "value": "> 5.55", "unit": "µM"},
      {"measurement": "clearance", "setting": "[8]", "value": 2.8, "unit": "mL/min/kg"},
      {"measurement": "clearance", "setting": "[9]", "value": 27, "unit": "mL/min/kg"},
      {"measurement": "Ki", "setting": "[10]", "value": 2.48, "unit": "µM"},
      {"measurement": "Ki", "setting": "[11]", "value": "> 8.83", "unit": "µM"}
    ]}
  ]
}
